Counter-ions that a name gives are not always drawn.
Tests used:
[1] = test system: selected cell lines in hollow fibers; assay: Hollow fiber in vivo model; parameters: species or system Nu/Nu CD-1 male mice; settings: Method 37, sub-cutaneous route
Method: At day 1, selected cell lines were cultured and the fiber filled at a cell density of about 40,000 cells/fiber. At the day of operation (day 4), three fibers are implanted sub-cutaneous into 28-35 Nu/Nu CD-1 male mice. On day 5, mice start to receive daily injection via sub-cutaneous route of control vehicle or vehicle containing the selected compound at the appropriate concentration and/or injection of cytotoxic agent via intra-peritoneal route. Upon 7 days of non-consecutive treatments, the animals are sacrificed, each fiber is removed and the metabolic viability of the remaining cells determined by MTT assay. Efficacy of the compound is define as the difference between the vehicle-treated animal and the animal treated with the compound alone or the compound given in combination of the cytotoxic agent

H460 cells = assay: Combination anti-cancer therapy in vivo with Taxotere, H460 tumors; parameters: species or system Female CD-1 nude mice; settings: cumulative dose of 20 mg/kg, sc per day
Method: Taxotere (30 mg/kg, ip)/Saline (n=9)
Taxotere (30 mg/kg, ip)/compound 56 (2×5 mg/kg, sc) (n=10)
Female CD-1 nude mice (approximately 20-25 g) were subcutaneously injected with 1×10^6 H460 cells in the right flank. Animals were balanced into groups based on tumor size and drug therapy began when tumors were ˜30-50 mm^3. Animals that had no tumor or that were deemed outliers because of excessive tumor size at this time were removed from the study. The remaining animals received Taxotere (or equivalent volume of vehicle) at 30 mg/kg, ip 2 times, one week apart. The compound was given two times per day (at 10 mg/kg, sc, approximately 6 hrs apart), starting at the time of Taxotere, and continuing daily for the duration of the experiment. If dehydration occurred, animals received sc fluids (0.5 ml). Tumor size was measured three times per week. Health assessments were performed at the time of the compound's delivery.

## CN[C@@H](C)C(=O)N[C@H](C(=O)N1CCC[C@H]1CN(CCc1ccccc1)C(=O)[C@H](N)Cc1ccc(OC)cc1)C(C)(C)C [54 bis-HCl]
[1]
  MTT signal in hollow fiber model: reduction in MTT signal
H460 cells
  Anti-tumor activity in combination with Taxotere: anti-tumor activity
